Results: ChEMBL document CHEMBL1153321, “Approaches to the simultaneous inactivation of metallo- and serine-beta-lactamases” (Bioorg Med Chem Lett, 2009)

How the values were obtained:
[1] = Inhibition of recombinant VIM-2
[2] = Inhibition of recombinant GIM-1

Compound	IC50 [1]	IC50 [2]
CC1=C(C(=O)O)N2C(=O)/C(=N/O)[C@H]2S(=O)(=O)C1	25 µM	> 500 µM
CC(=O)OCC1=C(C(=O)O)N2C(=O)[C@@H](N(O)C(=O)Cc3ccccc3)[C@H]2SC1	2 µM	0.3 µM
CC(=O)OCC1=C(C(=O)O)N2C(=O)[C@@H](NC=O)[C@H]2SC1	35 µM	47 µM
CC(=O)OCC1=C(C(=O)O)N2C(=O)/C(=N/O)[C@H]2S(=O)(=O)C1	270 µM	170 µM
CC(=O)OCC1=C(C(=O)O)N2C(=O)/C(=N/O)[C@H]2SC1	10 µM	15 µM
CC(=O)OCC1=C(C(=O)O)N2C(=O)[C@@H](N(O)C=O)[C@H]2SC1	10 µM	0.3 µM
CC(=O)OCC1=C(C(=O)O)N2C(=O)[C@@H](NO)[C@H]2SC1	9 µM	2 µM
